Measured values as given in patent publication EP0533933A1, “BISHETEROCYCLIC COMPOUND” (YAMANOUCHI PHARMACEUTICAL CO. LTD., priority 1990, dated 1992).

Experiments:
KK mice = experiment: Hypoglycemic activity (blood glucose decrease in KK mice, glucose oxidase method); type: in vivo; conditions: percent decrease of blood glucose from the level prior to administration; dosage level of 100 mg; per os daily for 4 consecutive days, blood glucose on day 5; male KK mice on high caloric diet
Description: Male KK mice, 4-5 weeks old, were obtained from Japan Clea. The animals were individually put on a high caloric diet (CMF, Oriental Yeast) and the individuals weighing about 40 g were selectively used.
For determination of blood glucose, 10 µl of blood was withdrawn from the caudal vein, deproteinized with 100 µl of 0.33 N perchloric acid and centrifuged. The glucose in the supernatant was assayed by the glucose oxidase method. Groups of 6 animals showing 200 mg/dℓ or more of blood glucose were submitted to the experiment.
The test compound was suspended in 0.5% methylcellulose and administered daily per os for 4 consecutive days. Before administration and on day 5, the blood was withdrawn from the caudal vein of each animal and the blood glucose was determined by the above method.
Hypoglycemic potency was expressed in terms of percent decrease from the glucose level prior to administration of the test compound and the results were statistically evaluated at the significance level of p=0.05. * = p<0.05 ** = p<0.01 *** = p<0.001 As a result, a significant hypoglycemic effect was attained within the dose range of 10 to 300 mg/kg.

Fischer rats = experiment: Oral toxicity in Fischer rats, 3 consecutive days; type: in vivo; conditions: Fischer rats (2 animals per sex), orally, 1,000 mg/kg for 3 consecutive days

Compound | % Inhibition (KK mice) [%] | abnormality after oral administration (Fischer rats)
O=C1NC(=O)C(Cc2ccc(OCCCCCCCOc3ccc(CC4SC(=O)NC4=O)cc3)cc2)S1 (stereo not shown) [Example 14, 1,7-bis[4-[(2,4-dioxo-5-thiazolidinyl)methyl]phenoxy]heptane] | 37 | –
O=C1NC(=O)C(Cc2ccc(Cc3ccc(CC4SC(=O)NC4=O)cc3)cc2)S1 (stereo not shown) [Example 15, 4,4'-bis[(2,4-dioxo-5-thiazolidinyl)methyl]diphenylmethane] | 47 | no abnormality was observed
O=C1NC(=O)C(Cc2ccc(OC/C=C/COc3ccc(CC4SC(=O)NC4=O)cc3)cc2)S1 (stereo not drawn) [Example 16, trans-1,4-bis[p-[(2,4-dioxo-5-thiazolidinyl)methyl]phenoxy]-2-butene] | 51 | –
